Data published in patent publication US20030220312A1, “Epoxy-steroidal aldosterone antagonist and calcium channel blocker combination therapy for treatment of cardiovascular disorders” (G.D. Searle & Co., priority 2000, published 2003).

Tests used:
hypertensive rats = assay: Assay C: Hypertensive Rat Model (renal artery clip); format: in vivo; details: combination of calcium channel blocker and eplerenone versus either component alone, 12 to 24 weeks, expected
Description: Assay “C”: Hypertensive Rat Model Male rats are made hypertensive by placing a silver clip with an aperture of 240 microns on the left renal artery, leaving the contralateral kidney untouched. Sham controls undergo the-same procedure but without attachment of the clip. One week prior to the surgery, animals to be made hypertensive are divided into separate groups and drug treatment is begun. […] The hearts are removed, weighed, measured and fixed in formalin. Collagen content of heart sections are evaluated using computerized image analysis of picrosirius stained sections.

[1] = system: rats with myocardial infarction; assay: Assay D: Myocardial Infarction Rat Model (coronary ligation); format: in vivo; details: combination of calcium channel blocker and eplerenone versus either component alone, six weeks, expected
Description: Assay “D”: Myocardial Infarction Rat Model: Male rats are anesthetized and the heart is exteriorized following a left sided thoracotomy. The left anterior descending coronary artery is ligated with a suture. The thorax is closed and the animal recovers. Sham animals have the suture passed through without ligation. One week prior to the surgery, animals to undergo infarction are divided into separate groups and drug treatment is begun. Groups of animals are administered vehicle, calcium channel blocker alone, eplerenone alone, and combinations of calcium channel blocker and eplerenone, at various doses, as follow: After six weeks, systolic and diastolic blood pressure, left ventricular end diastolic pressure, left ventricular dP/dT, and heart rate are evaluated. The hearts are removed, weighed, measured and fixed in formalin. Collagen content of heart sections are evaluated using computerized image analysis of picrosirius stained sections.

[2] = system: patients with mild to moderate hypertension; assay: Example 19 clinical study: eplerenone versus placebo co-administered with a calcium-channel blocker; format: in vivo, human
Description: This multicenter, randomized, double-blind, placebo-controlled, placebo run-in, parallel group trial involving a minimum of 120 randomized patients with hypertension (seated diastolic blood pressure [seDBP] ≧95 mmHg and <110 mmHg and seated systolic BP [seSBP] <180 mmHg while taking a CCB) will consist of a one- to two-week pretreatment screening period followed by a two- to four-week single-blind placebo run-in period and an 8-week double-blind treatment period. Eligible patients will be patients currently receiving a CCB as part of their antihypertensive medication. […] The dose will not be changed for patients with adequate BP control. […] If the dose has been increased at Week 2, the patient will be reassessed at Week 6. […] If BP is uncontrolled at Week 6 and the dose has been increased at Week 2 or Week 4, the patient must be withdrawn from the study. If symptomatic hypotension (i.e., lightheadedness, dizziness, or syncope associated with low BP) occurs at any time during the study, or if DBP is ≧110 mmHg or SBP is ≧180 mmHg at any time during the trial, the patient must be withdrawn. Patients will receive study medication for a total of 8 weeks.
Patients will return to the clinic for evaluations at Weeks 0 (baseline), 2, 4, 6, 8, and 9. Heart rate, BP, adverse events and concomitant medication will be assessed at each visit. Hematology and biochemistry evaluations and urinalysis for safety will be at Weeks 0, 8, and 9. Serum potassium levels will be determined at Weeks 0 (baseline), 2, 4, 6, 8, and 9. Plasma renin, serum aldosterone, and plasma cortisol will be determined at Weeks 0 and 8. A 12-lead electrocardiogram and physical examination will be done at screening and at Week 9.
The study will consist of a one- to two-week pretreatment screening period followed by a two- to four-week single-blind placebo run-in treatment period, prior to randomization to an eight-week double-blind treatment period.
Eligible patients will be either currently receiving a CCB alone, or receiving a CCB as part of their antihypertensive medication. […] The dose will not be changed for patients with adequate BP control. […] If the dose has been increased at Week 2, the patient will be reassessed at Week 6. The dose of study medication will not be changed for patients with adequate BP control. […] If BP is uncontrolled at Week 6 and the dose has been increased at Week 2 or Week 4, the patient must be withdrawn from the study. The dose of study medication will not be changed for patients with adequate BP control. If symptomatic hypotension (i.e., lightheadedness, dizziness, or syncope associated with low BP) occurs at any time during the study, or if DBP is ≧110 mmHg or SBP is ≧180 mmHg at any time during the study, the patient must be withdrawn. Patients will receive study medication for a total of eight weeks.
Patients will return to the clinic for evaluations at Weeks 0, 2, 4, 6, 8, and 9. Heart rate, BP, adverse events and concomitant medication will be assessed at each visit. Hematology and biochemistry evaluations and urinalysis for safety will be at Weeks 0, 8, and 9. Serum potassium levels will be determined at Weeks 0, 2, 4, 6, 8, and 9. Plasma renin, serum aldosterone, and plasma cortisol will be determined at Weeks 0 and 8. […]
BP evaluations will be analyzed at each visit using two-way analysis of covariance (ANCOVA) with the baseline measurement as the covariate and treatment and center as factors. […]

[3] = system: patients with heart failure after an acute myocardial infarction; assay: Example 20 clinical study: eplerenone plus CCB in heart failure following acute myocardial infarction; format: in vivo, human; details: expected
Description: Secondary endpoints include cardiovascular morbidity and mortality. […] (a) pulmonary edema (bilateral posttussive crackles extending at least 1⁄3 of the way up the lung fields in the absence of significant chronic pulmonary disease); or (b) chest x-ray showing pulmonary venous congestion with interstitial or alveolar edema; or (c) auscultatory evidence of a third heart sound (S3) with persistent tachycardia (>100 beats per minute). Eligible patients may be identified for inclusion at any time following emergency room evaluation and presumptive diagnosis of AMI with HF. […] Patients with implanted cardiac defibrillators are excluded. Patients will receive CCB therapy and may have received anticoagulants and antiplatelet agents, and may have received thrombolytics or emergency angioplasty. […] Serum potassium will be determined at 48 hours after initiation of treatment, at 1 and 5 weeks, at all other scheduled study visits, and within one week following any dose change. […] Vital signs (seated heart rate and BP), New York Heart Association (NYHA) functional class, adverse events, and selected concurrent medications will be recorded at every visit. […]

[4] = X-ray powder diffraction estimate of Form H content of dried solids; format: physicochemical; details: for Estimated Weight Percent of Form H: dried solids from methyl ethyl ketone crystallization
Description: The weight percent of the diepoxide or 11,12-epoxide in each sample is given in Tables X-6A and X-6B, respectively. A micro-flea magnetic stirrer was added to each scintillation vial along with 1 mL of methyl ethyl ketone. The vials were loosely capped and the solid dissolved by heating to reflux on a hot plate with magnetic stirring. Once the solids were dissolved, the solutions were allowed to cool to room temperature on the hot plate. Magnetic stirring was maintained during the cooling period. After the solutions reached room temperature, the solids were collected by vacuum filtration and immediately analyzed by X-ray powder diffraction (XPRD). The solids were then placed in a 100° C. oven and dried for one hour at ambient pressure. The dried solids were analyzed by XPRD for Form H content by monitoring the area of the Form H diffraction peak at about 12.1 degrees two theta. All XPRD diffraction patterns were recorded using an Inel Multipurpose Diffractometer.
Variables in the design of the experiments included cooling rate, starting material purity level, and end point temperature of crystallization.
High endpoint was defined as 45° C. and low endpoint was defined as 5° C. High cooling rate was defined as 3° C./minute cooling and low cooling rate was defined as 0.1° C./minute cooling.
After a background reading was taken with the FTIR, 250 mL of methyl ethyl ketone was charged to a 1 L Mettler RC-1, MP10 reactor and stirred at 100 rpm. […] Agitation was increased to 500 rpm to suspend solids and the batch temperature was increased to 80° C. […] Black or white specks generally were visible in the resulting transparent solution. The batch temperature was then ramp cooled at the desired rate to the desired endpoint, where it was maintained for one hour before being pulled into a transfer flask and filtered. […] reactor, transfer flask and cake were then washed with 120 mL methyl ethyl ketone. Once the wash was pulled through the cake, the stopped. About 10 grams of each wet cake were dried in a vacuum oven under nominal conditions of 75° C. with a light nitrogen bleed. […]

[5] = Form H content of the Form H seeding product by DSC; format: physicochemical; details: cooling rate (0) 1.5° C./min, cooling endpoint (0) 25° C., 100.8% eplerenone seeded with Form H
Description: The X-ray powder diffraction model, however, had not been tested for linearity beyond about 15% Form H. This experiment was the only one of the four experiments of this Example where Form H was created in the absence of the diepoxide.

[6] = Thermogravimetry / DSC of eplerenone solvates (desolvation); format: physicochemical; details: eplerenone solvate of the named solvent; extrapolated from final solvent weight loss step, thermogravimetric analysis at 10° C./minute under nitrogen purge
Description: Each sample (1-10 mg) was placed in an unsealed aluminum pan and heated at 10° C./minute.
Thermogravimetric analysis of solvates was performed using a TA Instruments TGA 2950 thermogravimetric analyzer. Samples were placed in an unsealed aluminum pan under nitrogen purge. Starting temperature was 25° C. with the temperature increased at a rate of about 10° C./minute.

[7] = system: myocardial fibrosis in animal models; details: literature (Klug et al; Brilla et al); cited from earlier work
[8] = CCB and eplerenone compared to CCB and placebo, Week 8
[9] = eplerenone 50-100 mg plus CCB versus CCB and placebo, eight weeks, hypertensive patients

Molecule	Desolvation Temperature [6]	also measured
COC(=O)[C@@H]1CC2=CC(=O)CC[C@]2(C)[C@@]23O[C@@H]2C[C@@]2(C)[C@@H](CC[C@@]24CCC(=O)O4)[C@H]13 [eplerenone, pregn-4-ene-7,21-dicarboxylic acid, 9,11-epoxy-17-hydroxy-3-oxo, γ-lactone, methyl ester, (7α,11α,17α)-]	–	cardiac performance (hypertensive rats): improvements in cardiac performance; cardiac performance [1]: improvements in cardiac performance; change in active renin levels [2, 8]: greater increase; change in aldosterone levels [2, 8]: greater increase; change in mean diastolic blood pressure [2, 9]: greater for the dual therapy group, compared to monotherapy, but this difference did not reach statistical significance; change in systolic blood pressure [2, 9]: significant reduction; serious adverse events ([2]; eplerenone added to CCB therapy, eight weeks): no serious adverse events; all cause mortality (primary end point) ([3]; eplerenone plus CCB relative to CCB alone): Improvement; secondary end points (cardiovascular mortality, hospitalizations, atrial fibrillation, stroke, quality of life) ([3]; eplerenone plus CCB versus CCB alone): Beneficial effects; Weight Percent Form H (XPRD) ([4]; cooling rate (+) 3° C./min, cooling endpoint (+) 45° C., impurity level (++) 61.1% purity eplerenone starting material, appears to be mixture of Form H and diepoxide): 100^5 Weight Percent; Estimated Weight Percent of Form H ([4]; 0% diepoxide in starting eplerenone mixture): None; Estimated Weight Percent of Form H ([4]; 1% diepoxide in starting eplerenone mixture): None; Weight Percent Form H when analyzed by DSC [5]: 100 Weight Percent
CCCCO [n-Butanol]	103 °C	–
CCCCCCCCO [n-Octanol]	116 °C	–
CC(=O)S[C@@H]1CC2=CC(=O)CC[C@]2(C)[C@H]2CC[C@@]3(C)[C@@H](CC[C@@]34CCC(=O)O4)[C@H]12 [spironolactone]	–	myocardial fibrosis [7]: prevents myocardial fibrosis
Acetone	117 °C	–
Butyl Acetate	108 °C	–
Chloroform	125 °C	–
Ethanol	166 °C	–
Ethyl Propionate	122 °C	–
Isobutyl Acetate	112 °C	–
Isopropanol	121 °C	–
Methyl Acetate	103 °C	–
Methyl Ethyl Ketone	89 °C	–
Propyl Acetate	130 °C	–
Propylene Glycol	188 °C	–
Tetrahydrofuran	136 °C	–
Toluene	83 °C	–
t-Butyl Acetate	109 °C	–
